Test results published in patent US10682367B2, “Antitumor arylnaphthalene ligand glycosides” (OHIO STATE INNOVATION FOUNDATION, priority 2016, dated 2020).
pIC50: −log10 of the molar value. Converted amounts (≈) assume the structure as drawn. Where two headings read alike, the source gives them in different places.

How the values were obtained:
[1] = tested on: OVCAR3 ovarian cancer cell line; assay: IC50 in ovarian cancer cell line OVCAR3; type: cell-based
Experimental: (§1) The compounds shown in FIG. 2 were tested against two different ovarian cancer cell lines (xenograft mouse model OVCAR3 and OVCAR8 ovarian cancer cell lines). […] A summary of the test data is shown in FIGS. 3A, 3B, and 4 and Table 3. A comparison of the IC50 values of the compounds in FIG. 2 in two of the ovarian cancer cell lines (OVCAR3 and OVCAR8) reveal subtle differences in activity.

[2] = tested on: OVCAR8 ovarian cancer cell line; assay: IC50 in ovarian cancer cell line OVCAR8; type: cell-based
Experimental: as §1

[3] = Solubility, plate reader-based absorbance assay; type: physicochemical
From the text: A series of compounds were synthesized to improve their water solubility. In particular, phyllanthusmin derivatives including an arabinose derivative with a free C2 hydroxy group, have been explored to produce phosphate, succinate, and amino acid conjugates. In addition PHY-25 and PHY-30 have also been synthesized to contain similar alcohol functionality that can ultimately be utilized to improve water solubility. PHY-28 and PHY-29 containing a glucosamine moiety were also synthesized for improved water solubility. The water solubility of these and other PHY derivatives was assessed (Table 2) to establish a baseline of solubility in a series of 4 solutions. This was accomplished using a plate reader-based absorbance assay.
(§2) The solubility, maximum tolerated dose, and pharmacokinetics of the phyllanthusmins, facilitating the in vivo studies with PHY-34, were also determined. The solubility of the compounds were assessed in DMSO, PEG300, HPβCD, and PBS. The stability of PHY-34 was assessed in a formulation comprising PEG300 and saline at a 1:1 volume ratio. The solution was prepared at a concentration of 7 mg/ml. A plate reader-based absorbance assay or LC-MS/MS was used. Table 4 summarizes the solubility measurements. FIG. 5 and Table 5 summarize the stability measurements. FIGS. 6A and 6B show the concentration-time profile of PHY-34 in mouse plasma via different administration routes

[4] = tested on: HT-29 cells; assay: Cytotoxicity / antiproliferative activity against HT-29 cells; type: cell-based; details: for pIC50: HT-29 cells, antiproliferative activity
From the text: The cytotoxicity of the compounds in FIG. 1 was screened against HT-29 cells by a previously reported procedure (Ren Y et al. J. Nat. Prod 2011, 74, 1117-1125). A summary of the results is described in Table 1.

[5] = Structure-activity remarks on potency of PHY analogues (test not named); details: relative to PHY-34 type acetal
[6] = Stability of PHY-34 in PEG300/saline formulation; type: physicochemical; details: for Stability of PHY-34 / Stability of PHY-34, second value column: PEG300:saline 1:1, 7 mg/ml
Experimental: as §2

[7] = tested on: mice; assay: Toxicity and maximum tolerated dose in mice by IV, IP or PO route; type: in vivo; details: for MTD (maximum tolerated dose) / Toxicity (survival): mice
Experimental: To determine toxicity, PHY-34 was administered to mice by the bolus intravenous (IV), bolus intraperitoneal (IP), or oral (PO) route to the assigned animals.

[8] = mouse, in vivo
Experimental: as §2

[9] = Hollow fiber assay; set-up: species or system mice; details: mouse
Experimental: Hollow fiber assay, IVIS imaging, tubulin inhibition, autophagy, and tumor burden were determined in mice exposed to various arylnaphthalene ligans.

[10] = tested on: numerous other cell lines; assay: In vitro activity in numerous other cell lines; type: cell-based

CC(=O)O[C@H]1C(=O)[C@@]2(C)[C@H]([C@H](OC(=O)c3ccccc3)[C@]3(O)C[C@H](OC(=O)[C@H](O)[C@@H](NC(=O)c4ccccc4)c4ccccc4)C(C)=C1C3(C)C)[C@]1(OC(C)=O)CO[C@@H]1C[C@@H]2O [TAXOL, Taxol, reference compound]
pIC50 ([1]; Homo sapiens, OVCAR-3): 8.23
pIC50 ([2]; Homo sapiens, OVCAR-8): 8.11

COc1cc2c(OC)c3c(c(-c4ccc5c(c4)OCO5)c2cc1OC)C(=O)OC3 [PHY-26]
pIC50 ([1]; OVCAR3): 4.92
pIC50 ([2]; OVCAR8): 6.82

phyllanthusmins C [PHY-11]
Solubility in 10% Cremaphor EL/PBS [3]: 10 mg/mL
Solubility in DMSO [3]: 83 mg/mL
Solubility in PBS [3]: 0.18 mg/mL
Solubility in PEG300 [3]: 15 mg/mL

COc1cc2c(O[C@@H]3O[C@H](COC(C)=O)[C@@H](OC(C)=O)[C@H](OC(C)=O)[C@H]3NC(C)=O)c3c(c(-c4ccc5c(c4)OCO5)c2cc1OC)C(=O)OC3 [PHY-28]
pIC50 [4]: 5.81

COc1cc2c(OC3OC(CO)C4OC5(CCCC5)OC4C3O)c3c(c(-c4ccc5c(c4)OCO5)c2cc1OC)C(=O)OC3 (centres unmarked) [PHY-43]
pIC50 ([1]; OVCAR3): 6.93
pIC50 ([2]; OVCAR8): 8.61
effect of acetal variation on potency (in words) [5]: well tolerated

COc1cc2c(OC3OC4COC(C)OC4C(OC)C3OC)c3c(c(-c4ccc5c(c4)OCO5)c2cc1OC)C(=O)OC3 [PHY-33, 7-O-(4,6-O-ethylidene-2,3-di-O-methyl-β-D-galactopyranosyl)-diphyllin]
effect of acetal variation on potency (in words) [5]: loss of potency

phyllanthusmins D [PHY-1]
pIC50 ([1]; OVCAR3): 4.96
pIC50 ([2]; OVCAR8): 7.30
Solubility in 10% Cremaphor EL/PBS ([3]; Table 2): 8.4 mg/mL
Solubility in DMSO ([3]; Table 2): 97 mg/mL
Solubility in PBS ([3]; Table 2): 0.12 mg/mL
Solubility in PEG300 ([3]; Table 2): 33 mg/mL

COc1cc2c(OC3OCC4OC(C)(C)OC4C3OC)c3c(c(-c4ccc5c(c4)OCO5)c2cc1OC)C(=O)OC3 (centres unmarked) [PHY-31]
pIC50 [4]: 8.28

COCC1OC(Oc2c3c(c(-c4ccc5c(c4)OCO5)c4cc(OC)c(OC)cc24)C(=O)OC3)C(OC)C2OC(C)(C)OC12 (centres unmarked) [PHY-35]
pIC50 ([1]; OVCAR3): 8.31
pIC50 ([2]; OVCAR8): 8.15
Solubility in DMSO [3]: 86.8 mg/mL (≈ 142 mM)
Solubility in PEG300 [3]: 25.4 mg/mL (≈ 41.6 mM)

phyllanthusmins C [PHY-15]
Solubility in 10% Cremaphor EL/PBS [3]: 10 mg/mL
Solubility in DMSO [3]: 75 mg/mL
Solubility in PBS [3]: 0.20 mg/mL
Solubility in PEG300 [3]: 14 mg/mL

COc1cc2c(OC3OCC4OC(C)(C)OC4C3O)c3c(c(-c4ccc5c(c4)OCO5)c2cc1OC)C(=O)OC3 (centres unmarked) [PHY-30]
pIC50 [4]: 7.97
pIC50 ([1]; OVCAR3): 7.94
pIC50 ([2]; OVCAR8): 7.93

phyllanthusmins B [PHY-3]
Solubility in 10% Cremaphor EL/PBS [3]: 8.9 mg/mL
Solubility in DMSO [3]: 16 mg/mL
Solubility in PBS [3]: 0.18 mg/mL
Solubility in PEG300 [3]: 30 mg/mL

COc1cc2c(OC3OC(CO)C4OC(C)(C)OC4C3OC)c3c(c(-c4ccc5c(c4)OCO5)c2cc1OC)C(=O)OC3 (centres unmarked) [PHY-37]
pIC50 ([1]; OVCAR3): 8.45
pIC50 ([2]; OVCAR8): 8.31
Solubility in 30% HPβCD ([3]; Table 4): 0.6 mg/mL (≈ 1.01 mM)
Solubility in DMSO ([3]; Table 4): 104.0 mg/mL (≈ 174 mM)
Solubility in PBS ([3]; Table 4): — (below the limit of quantitation (0.01 mg/ml))
Solubility in PEG300 ([3]; Table 4): 28.7 mg/mL (≈ 48.1 mM)

COc1cc([C@@H]2c3cc4c(cc3[C@@H](O[C@@H]3O[C@@H]5CO[C@@H](C)O[C@H]5[C@H](O)[C@H]3O)[C@H]3COC(=O)[C@H]23)OCO4)cc(OC)c1O [ETOPO, etoposide, reference compound]
pIC50 ([1]; OVCAR3): 5.62
pIC50 ([2]; OVCAR8): 5.09

COc1cc2c(OC3OC4COC(C)OC4C(O)C3O)c3c(c(-c4ccc5c(c4)OCO5)c2cc1OC)C(=O)OC3 [PHY-32, 7-O-(4,6-O-ethylidene-β-D-galactopyranosyl)-diphyllin]
effect of acetal variation on potency (in words) [5]: loss of potency

phyllanthusmins C [PHY-4]
Solubility in 10% Cremaphor EL/PBS [3]: 9.4 mg/mL
Solubility in DMSO [3]: 63 mg/mL
Solubility in PBS [3]: 0.17 mg/mL
Solubility in PEG300 [3]: 32 mg/mL

COc1cc2c(OC3OC(CO)C(OC)C(OC)C3OC)c3c(c(-c4ccc5c(c4)OCO5)c2cc1OC)C(=O)OC3 (centres unmarked) [PHY-25]
pIC50 [4]: 8.77
pIC50 ([1]; OVCAR3): 5.82
pIC50 ([2]; OVCAR8): 7.98

COc1cc2c(OCC(O)CO)c3c(c(-c4ccc5c(c4)OCO5)c2cc1OC)C(=O)OC3 (centres unmarked) [PHY-19]
pIC50 [4]: 5.81

COc1cc2c(O[C@@H]3OC[C@H](OC(C)=O)[C@H](OC(C)=O)[C@H]3OC(C)=O)c3c(c(-c4ccc5c(c4)OCO5)c2cc1OC)C(=O)OC3 [PHY-7, 7-O-((2,3,4-tri-O-acetyl)-α-L-arabinopyranosyl) diphyllin]
Solubility in 10% Cremaphor EL/PBS [3]: 7.4 mg/mL (≈ 11.6 mM)
Solubility in DMSO [3]: 112 mg/mL (≈ 175 mM)
Solubility in PBS [3]: 0.14 mg/mL (≈ 0.219 mM)
Solubility in PEG300 [3]: 5.7 mg/mL (≈ 8.93 mM)

COc1cc2c(O[C@@H]3O[C@H](CO)[C@@H](O)[C@H](O)[C@H]3NC(C)=O)c3c(c(-c4ccc5c(c4)OCO5)c2cc1OC)C(=O)OC3 [PHY-29]
pIC50 [4]: 4.72

acutissimalignan A [ACUTA, reference compound]
pIC50 ([1]; OVCAR3): 5.50
pIC50 ([2]; OVCAR8): 7.45

phyllanthusmins C [PHY-20]
pIC50 [4]: 5.92
Solubility in 10% Cremaphor EL/PBS [3]: 10 mg/mL
Solubility in DMSO [3]: 86 mg/mL
Solubility in PBS [3]: 0.16 mg/mL
Solubility in PEG300 [3]: 24 mg/mL

C=CCOc1c2c(c(-c3ccc4c(c3)OCO4)c3cc(OC)c(OC)cc13)C(=O)OC2 [PHY-18]
pIC50 [4]: 6.24

COc1cc2c(OC3OC(CO)C4OC5(CCCCC5)OC4C3O)c3c(c(-c4ccc5c(c4)OCO5)c2cc1OC)C(=O)OC3 (centres unmarked) [PHY-42]
pIC50 ([1]; OVCAR3): 6.42
pIC50 ([2]; OVCAR8): 8.70
effect of acetal variation on potency (in words) [5]: well tolerated

COc1cc2c(OCCOCc3ccccc3)c3c(c(-c4ccc5c(c4)OCO5)c2cc1OC)C(=O)OC3 [PHY-17]
pIC50 [4]: 5.85

COc1cc2c(OC3OC(CO)C4OC(C)(C)OC4C3O)c3c(c(-c4ccc5c(c4)OCO5)c2cc1OC)C(=O)OC3 (centres unmarked) [PHY-34]
activity against HT-29 cells (in words) ([4]; in vitro): sub-nanomolar
pIC50 ([1]; OVCAR3): 8.40
potency in ovarian cancer cell lines (in words) ([1]; OVCAR3): highest potency
pIC50 ([2]; OVCAR8): 8.39
potency in ovarian cancer cell lines (in words) ([2]; OVCAR8): highest potency
Solubility in 30% HPβCD [3]: 1.7 mg/mL (≈ 2.92 mM)
Solubility in DMSO [3]: 114.4 mg/mL (≈ 196 mM)
Solubility in PBS [3]: 0.03 mg/mL (≈ 0.0515 mM)
Solubility in PEG300 [3]: 27.6 mg/mL (≈ 47.4 mM)
Stability of PHY-34 ([6]; 4° C., 1 week): 86
Stability of PHY-34 ([6]; 4° C., 1 day): 95
Stability of PHY-34, second value column ([6]; 4° C., 1 day): 77
Stability of PHY-34 ([6]; RT, 0 hr): 100
Stability of PHY-34, second value column ([6]; RT, 0 hr): 100
Stability of PHY-34 ([6]; RT, 6 hr): 87
Stability of PHY-34, second value column ([6]; RT, 6 hr): 82
Stability of PHY-34 ([6]; −20° C., 1 week): 87
Stability of PHY-34, second value column ([6]; −20° C., 1 week): 77
Stability of PHY-34 ([6]; −20° C., 1 day): 90
Stability of PHY-34, second value column ([6]; −20° C., 1 day): 82
Stability of PHY-34 ([6]; −80° C., 1 week): 86
Stability of PHY-34, second value column ([6]; −80° C., 1 week): 81
Stability of PHY-34 ([6]; −80° C., 1 day): 93
Stability of PHY-34, second value column ([6]; −80° C., 1 day): 80
stability of PHY-34 solution upon storage (in words) ([6]; storage for one week at 4° C. to −80° C.): stable (no significant degradation)
MTD (maximum tolerated dose) ([7]; IP): 1.8 mpk
Toxicity (survival) ([7]; IP, 0.6 mpk): all 3 alive
Toxicity (survival) ([7]; IP, 1.8 mpk): all 5 alive
Toxicity (survival) ([7]; IP, 3 mpk, within 0.5): all 3 died within 0.5
Toxicity (survival) ([7]; IP, 6 mpk, within 0.5 hour): all 5 died within 0.5
MTD (maximum tolerated dose) ([7]; IV): 0.6 mpk
Toxicity (survival) ([7]; IV, 0.3 mpk): all 5 alive
Toxicity (survival) ([7]; IV, 0.6 mpk): all 5 alive
Toxicity (survival) ([7]; IV, 1 mpk, within 0.5 hour): 1 out of 5 died within
Toxicity (survival) ([7]; IV, 3 mpk, within 5 minutes): all 5 died within 5
MTD (maximum tolerated dose) ([7]; PO): >30 mpk
Toxicity (survival) ([7]; PO, 30 mpk): all 5 alive
toxicity on oral dosing (in words) ([7]; oral dosing, up to 30 mpk): no toxicity
AUC on oral dosing (in words) [8]: reasonable AUCs
efficacy in vivo in hollow fiber assay (in words) [9]: demonstrated efficacy
activity in numerous other cell lines (in words) [10]: single digit nanomolar
